In patent publication US20230219986A1, “NOVEL AMINOPYRIMIDINE EGFR INHIBITOR” (QILU PHARMACEUTICAL CO., LTD., priority 2020, published 2023):
Where two headings read alike, the source gives them in different places.

Columns and labels:
[1] = molecular target: Ba/F3 L858R/T790M/C797S EGFR triple mutant cell line (Homo sapiens, UniProt P00533, T790M/C797S/L858R, cells depend on it); assay: Cell proliferation inhibition experiment (CellTiter-Glo), Ba/F3 L858R/T790M/C797S; type: cell-based; conditions: 72 hours, Cell Titer-Glo, read-out: Ba/F3 (L858R/T790M/C797S) IC50
Chain of Ba/F3 L858R/T790M/C797S EGFR triple mutant cell line (P00533 whole entry T790M/C797S/L858R): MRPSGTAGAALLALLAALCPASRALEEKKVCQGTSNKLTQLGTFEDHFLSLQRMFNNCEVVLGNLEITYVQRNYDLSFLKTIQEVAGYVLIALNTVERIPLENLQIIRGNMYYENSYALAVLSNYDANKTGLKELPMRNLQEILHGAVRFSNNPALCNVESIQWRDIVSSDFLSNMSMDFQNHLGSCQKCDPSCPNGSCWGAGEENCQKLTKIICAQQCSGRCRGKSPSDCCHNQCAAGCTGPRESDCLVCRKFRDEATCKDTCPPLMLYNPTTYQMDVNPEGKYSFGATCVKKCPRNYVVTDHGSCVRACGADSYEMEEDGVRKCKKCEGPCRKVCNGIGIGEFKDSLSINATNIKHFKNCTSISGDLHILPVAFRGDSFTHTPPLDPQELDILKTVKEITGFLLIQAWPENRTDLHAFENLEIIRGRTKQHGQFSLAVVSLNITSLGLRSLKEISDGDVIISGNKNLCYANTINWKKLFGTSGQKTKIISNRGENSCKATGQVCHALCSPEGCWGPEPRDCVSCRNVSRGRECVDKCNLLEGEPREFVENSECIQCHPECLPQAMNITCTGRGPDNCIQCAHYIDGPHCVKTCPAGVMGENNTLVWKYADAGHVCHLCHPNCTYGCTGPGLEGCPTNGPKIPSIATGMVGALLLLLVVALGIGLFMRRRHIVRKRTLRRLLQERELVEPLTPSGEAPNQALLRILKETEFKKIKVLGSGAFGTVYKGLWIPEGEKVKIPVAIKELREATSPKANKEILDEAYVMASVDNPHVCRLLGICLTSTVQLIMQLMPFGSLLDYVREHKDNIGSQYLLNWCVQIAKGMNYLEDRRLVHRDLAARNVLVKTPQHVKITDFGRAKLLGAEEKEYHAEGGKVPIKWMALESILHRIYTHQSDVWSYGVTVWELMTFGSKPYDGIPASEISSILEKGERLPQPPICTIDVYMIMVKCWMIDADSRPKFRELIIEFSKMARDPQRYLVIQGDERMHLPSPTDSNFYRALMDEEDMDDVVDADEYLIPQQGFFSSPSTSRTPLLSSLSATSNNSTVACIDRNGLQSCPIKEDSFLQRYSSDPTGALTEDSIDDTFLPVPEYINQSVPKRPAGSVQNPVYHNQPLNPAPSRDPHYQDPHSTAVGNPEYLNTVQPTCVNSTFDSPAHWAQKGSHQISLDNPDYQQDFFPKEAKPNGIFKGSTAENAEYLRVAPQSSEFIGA
Experimental: (§1) 3) 30 nL of gradient diluted compound was transferred into the 384-well experimental plate using Echo 550 (Labcyte) at a DMSO final concentration of 0.1%, and the culture plate was incubated in a cell incubator for 72 hours (37° C., 5% CO2).
(§2) 4) 30 μL of Cell Titer-Glo reagent was added to each well and left for 30 minutes at room temperature and protected from light.
(§3) 5) Envision microplate reader (PerkinElmer) detected chemiluminescence signals.
(§4) 6) GraphPad Prism 8 software was used for data analysis to obtain the IC50 of the compounds of the present disclosure and the positive control.

[2] = molecular target: Ba/F3 De119/T790M/C797S EGFR triple mutant cell line (Homo sapiens, UniProt P00533, T790M/C797S, cells depend on it, form not given); assay: Cell proliferation inhibition experiment (CellTiter-Glo), Ba/F3 De119/T790M/C797S; type: cell-based; conditions: Ba/F3 Del19/T790M/C797S EGFR triple mutant cells, 72 hours, Cell Titer-Glo; read-out: Ba/F3 (Del19/T790M/C797S) IC50
Chain of Ba/F3 De119/T790M/C797S EGFR triple mutant cell line (P00533 with tags, fused parts or gaps DEL746-750/T790M/C797S, form open): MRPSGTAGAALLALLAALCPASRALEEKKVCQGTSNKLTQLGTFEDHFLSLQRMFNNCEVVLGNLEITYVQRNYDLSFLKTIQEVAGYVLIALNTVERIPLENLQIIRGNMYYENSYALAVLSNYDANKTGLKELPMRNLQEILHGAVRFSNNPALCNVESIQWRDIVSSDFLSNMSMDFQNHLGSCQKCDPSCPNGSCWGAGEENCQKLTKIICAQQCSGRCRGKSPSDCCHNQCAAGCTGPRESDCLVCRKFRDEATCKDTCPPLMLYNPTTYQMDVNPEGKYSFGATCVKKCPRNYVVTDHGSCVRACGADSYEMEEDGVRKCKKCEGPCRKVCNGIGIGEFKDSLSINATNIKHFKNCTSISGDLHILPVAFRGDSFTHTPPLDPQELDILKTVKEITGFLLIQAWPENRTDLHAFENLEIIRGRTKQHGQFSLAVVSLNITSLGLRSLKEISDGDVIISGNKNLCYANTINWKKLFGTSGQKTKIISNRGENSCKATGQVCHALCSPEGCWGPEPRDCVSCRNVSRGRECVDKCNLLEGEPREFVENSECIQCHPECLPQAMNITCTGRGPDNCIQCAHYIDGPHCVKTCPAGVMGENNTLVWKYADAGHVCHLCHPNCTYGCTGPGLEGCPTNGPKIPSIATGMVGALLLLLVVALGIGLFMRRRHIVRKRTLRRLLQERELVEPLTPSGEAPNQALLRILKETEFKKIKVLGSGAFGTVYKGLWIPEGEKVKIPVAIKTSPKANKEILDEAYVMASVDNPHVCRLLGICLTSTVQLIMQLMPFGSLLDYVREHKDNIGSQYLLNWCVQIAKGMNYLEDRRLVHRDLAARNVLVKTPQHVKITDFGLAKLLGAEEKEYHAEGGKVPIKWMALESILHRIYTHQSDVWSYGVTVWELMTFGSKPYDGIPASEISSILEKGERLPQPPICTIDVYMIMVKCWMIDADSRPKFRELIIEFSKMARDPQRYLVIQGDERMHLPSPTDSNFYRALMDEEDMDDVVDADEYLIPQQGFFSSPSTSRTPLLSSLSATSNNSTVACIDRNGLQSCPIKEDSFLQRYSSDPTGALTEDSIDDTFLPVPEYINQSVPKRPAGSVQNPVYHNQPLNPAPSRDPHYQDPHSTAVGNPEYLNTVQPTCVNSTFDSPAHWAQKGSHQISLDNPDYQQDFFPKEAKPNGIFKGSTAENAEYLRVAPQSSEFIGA
Experimental: as §1, §2, §3, §4

[3] = system: EGFR wild-type cell line A431; assay: Cell proliferation inhibition experiment (CellTiter-Glo), A431; type: cell-based; conditions: A431 cells, Cell Titer-Glo, read-out: A431 EGFR WT IC50
Experimental: A431 cells, purchased from ATCC.
1) A431 cells were inoculated in a 384-well culture plate at a density of 800 cells per well, 30 μL per well, placed in a cell incubator, and cultured for 24 hours (37° C., 5% CO2).
as §1, §2, §3, §4

[4] = molecular target: T1, L858R/T790M/C797S triple mutant EGFR (Homo sapiens, UniProt P00533, C797S/L858R/T790M); assay: Enzymology experiment in vitro (HTRF/FRET kinase activity), L858R/T790M/C797S triple mutant EGFR; type: biochemical; conditions: HTRF KinEASE-TK, read-out: EGFR (L858R/T790M/C797S) IC50
T1 construct: purchased Signalchem
T1 sequence (P00533 25-1210 T790M/C797S/L858R): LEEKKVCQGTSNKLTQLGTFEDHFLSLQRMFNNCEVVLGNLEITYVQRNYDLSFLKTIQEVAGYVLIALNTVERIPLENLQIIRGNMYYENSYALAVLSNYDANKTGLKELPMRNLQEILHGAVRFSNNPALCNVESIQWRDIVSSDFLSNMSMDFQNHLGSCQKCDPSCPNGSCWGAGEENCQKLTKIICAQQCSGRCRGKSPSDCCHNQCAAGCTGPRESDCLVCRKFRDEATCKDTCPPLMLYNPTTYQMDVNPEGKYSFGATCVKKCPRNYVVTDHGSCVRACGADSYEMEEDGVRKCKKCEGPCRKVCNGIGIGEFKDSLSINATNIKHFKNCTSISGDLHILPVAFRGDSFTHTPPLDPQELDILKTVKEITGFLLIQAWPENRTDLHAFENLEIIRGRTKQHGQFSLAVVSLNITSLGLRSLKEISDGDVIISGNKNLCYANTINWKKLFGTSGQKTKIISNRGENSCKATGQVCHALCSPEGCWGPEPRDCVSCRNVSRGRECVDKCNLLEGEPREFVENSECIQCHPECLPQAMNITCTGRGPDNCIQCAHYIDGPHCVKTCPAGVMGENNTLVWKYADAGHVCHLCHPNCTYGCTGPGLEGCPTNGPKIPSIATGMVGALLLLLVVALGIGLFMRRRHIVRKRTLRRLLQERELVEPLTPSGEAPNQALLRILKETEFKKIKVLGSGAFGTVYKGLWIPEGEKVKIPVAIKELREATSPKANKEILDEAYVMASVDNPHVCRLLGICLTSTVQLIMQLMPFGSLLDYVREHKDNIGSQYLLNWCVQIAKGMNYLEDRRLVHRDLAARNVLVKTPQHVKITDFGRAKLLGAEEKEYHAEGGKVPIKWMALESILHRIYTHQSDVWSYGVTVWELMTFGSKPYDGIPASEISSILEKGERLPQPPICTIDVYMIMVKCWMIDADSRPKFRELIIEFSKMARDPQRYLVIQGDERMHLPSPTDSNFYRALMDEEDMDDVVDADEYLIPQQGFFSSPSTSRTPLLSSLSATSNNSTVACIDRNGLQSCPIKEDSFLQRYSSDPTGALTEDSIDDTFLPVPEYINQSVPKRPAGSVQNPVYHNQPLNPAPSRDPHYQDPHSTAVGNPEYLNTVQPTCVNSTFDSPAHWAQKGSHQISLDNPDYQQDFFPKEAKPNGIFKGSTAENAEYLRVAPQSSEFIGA
Experimental: 1. Experimental Materials
HTRF KinEASE-TK kit detection reagent, purchased from Cisbio
1) 10 nL of gradient diluted compound was transferred into a 384-well experimental plate using Echo 550 (Labcyte).
2) 5 μL of 2×EGFR enzyme solution was added to the 384-well experimental plate and incubated at room temperature for 10 minutes.
3) 5 μL of 2× substrate solution containing polypeptide and ATP was added to the 384-well experimental plate and incubated at room temperature for 40 minutes.
4) 10 μL of detection solution containing EDTA, XL665-labeled streptavidin and Eu^3+-labeled antibody was added thereto and incubated at room temperature for 1 hour.

Row | Structure (SMILES) | GI50 [1] | GI50 [2] | IC50 ([3]; Homo sapiens, A-431, 72 h) | IC50 ([3]; Homo sapiens, A-431, 72 hours) | IC50 [4] | IC50 ([3]; 72 hours)
1 | COc1nc(N2CCN(C)CC2)c(-c2cnn(C)c2)cc1Nc1ncc(Br)c(Nc2ccc3nccnc3c2P(C)(C)=O)n1 [compound 65] | 17.3 nM | 6.68 nM | 72.4 nM |  |  | 
2 | COc1cc(N2CCCCC2)c(-c2cnn(C)c2)cc1Nc1ncc(Br)c(Nc2ccc3nccnc3c2P(C)(C)=O)n1 [compound 66] | 10.8 nM | 3.04 nM | 575 nM |  |  | 
3 | COc1nc(N2CCC3(CC2)COC3)c(-c2cnn(C)c2)cc1Nc1ncc(Br)c(Nc2ccc3nccnc3c2P(C)(C)=O)n1 [compound 67] | 59.2 nM | 42.3 nM |  | 622 nM |  | 
4 | COc1cc(N2CCOCC2)c(-n2cc(C)cn2)cc1Nc1ncc(Br)c(Nc2ccc3nccnc3c2P(C)(C)=O)n1 [compound 73] | 536 nM | 326 nM | 3260 nM |  |  | 
5 | CN1CCC2(CC1)CCN(c1ccc(Nc3ncc(Br)c(Nc4ccc5nccnc5c4P(C)(C)=O)n3)cc1-c1cnn(C)c1)CC2 [compound 76] | 9.96 nM | 5.4 nM | 20.7 nM |  |  | 
6 | COc1cc(N2CCOCC2)c(-c2ccnn2C)cc1Nc1ncc(Br)c(Nc2ccc3nccnc3c2P(C)(C)=O)n1 [compound 90] | 446 nM | 251 nM | 4390 nM |  |  | 
7 | COc1cc(N2CCOCC2)c(-c2cncn2C)cc1Nc1ncc(Br)c(Nc2ccc3nccnc3c2P(C)(C)=O)n1 [compound 91] | 430 nM | 278 nM | 3550 nM |  |  | 
8 | COc1c(Nc2ncc(Br)c(Nc3ccc4nccnc4c3P(C)(C)=O)n2)cc(-c2cnn(C)c2)c(N2CCC(N(C)C)CC2)c1F [compound 95] | 40.9 nM | 15.7 nM | 96.7 nM |  |  | 
9 | COc1cc(N2CCC(N(C)C)CC2)c(-c2cnn(C)c2)cc1Nc1ncc(Br)c(Nc2ccc3nccnc3c2P(C)(C)=O)n1 [compound 96] | 9.39 nM | 3.52 nM | 44.2 nM |  |  | 
10 | COc1cc(N2CCN(CCO)CC2)c(-c2cnn(C)c2)cc1Nc1ncc(Br)c(Nc2ccc3nccnc3c2P(C)(C)=O)n1 [compound 99] | 104 nM | 40.6 nM | 209 nM |  |  | 
11 | Cc1cc(Nc2ncc(Br)c(Nc3ccc4nccnc4c3P(C)(C)=O)n2)cc(-c2cnn(C)c2)c1N1CCOCC1 [compound 100, (6-((5-bromo-2-((3-methyl-5-(1-methyl-1H-pyrazol-4-yl)-4-morpholinylphenyl)amino)pyrimidin-4-yl)amino)quinoxalin-5-yl)dimethylphosphine oxide] | 6.2 nM | 2.87 nM | 29.1 nM |  |  | 
12 | COc1cc(N2CCN(C)C(C)(C)C2)c(-c2cnn(C)c2)cc1Nc1ncc(Br)c(Nc2ccc3nccnc3c2P(C)(C)=O)n1 [compound 108] | 24.5 nM | 12.5 nM | 92.8 nM |  |  | 
13 | COc1cc(N2CC3(COC3)C2)c(-c2cnn(C)c2)cc1Nc1ncc(Br)c(Nc2ccc3nccnc3c2P(C)(C)=O)n1 [compound 109] | 62.8 nM | 46.3 nM | 547 nM |  |  | 
14 | COc1cc(N2CCC(C)(N)CC2)c(-c2cnn(C)c2)cc1Nc1ncc(Br)c(Nc2ccc3nccnc3c2P(C)(C)=O)n1 [compound 113] | 176 nM | 74.5 nM | 189 nM |  |  | 
15 | COc1cc(N2CCNCC2)c(-c2cnn(C)c2)cc1Nc1ncc(Br)c(Nc2ccc3nccnc3c2P(C)(C)=O)n1 [compound 117] | 120 nM | 41 nM | 157 nM |  |  | 
16 | COc1cc(N2CCC(N3CCOCC3)CC2)c(-c2cnn(C)c2)cc1Nc1ncc(Br)c(Nc2ccc3nccnc3c2P(C)(C)=O)n1 [compound 129] | 2.71 nM | 0.72 nM |  |  | 0.27 nM | 86.2 nM
17 | COc1cc(C2=CCN(C)CC2)c(-c2cnn(C)c2)cc1Nc1ncc(Br)c(Nc2ccc3nccnc3c2P(C)(C)=O)n1 [compound 177] | 35 nM | 25.6 nM | 59.3 nM |  |  | 
18 | COc1cc(N2CCC(N3CCOCC3)CC2)c(-c2cnn(C)c2)cc1Nc1ncc(Br)c(Nc2ccc3nccnc3c2P(C)(C)=O)n1 [compound 210] | 7.23 nM | 4.42 nM |  |  | 0.11 nM | 275 nM
